# From patent US6051417A, “Prostate cancer drug screening using hKLK2 enhancer” (Calydon, Inc., priority 1997, dated 2000)
# pEC50: −log10 of the molar value. Read-outs that look alike come from different tables or passages of the source.
# Key:
# [1] = test system: CMV-Luc/LNCaP stable cell line; assay: CMV-Luc/LNCaP stable cell line luciferase expression (control); type: cell-based, human; settings: 10-1000 nM androgen
# Protocol: CMV-Luc/LNCaP Cell Line. Transfections of the control plasmid, CMV-Luc, into LNCaP cells were done in the same fashion as for PSE-Luc. The stable cell line CN1006, containing CMV-Luc, was obtained by selection with G418. The luciferase assay was performed as described above.
# Luciferase Expression of CMV-Luc/LNCaP Stable Cell Line. LNCaP clones containing the CMV-Luc gene were screened for stable expression of the luciferase gene (i.e. selection of stable cell line). A 3-4 fold increase in expression levels over the uninduced cells was observed upon the addition of 10-1000 nM androgen. A similar androgen stimulation of CMV-Luc expression in transient transfection of LNCaP cells was reported by Pang et al., Hum. Gene Ther. (1995) 6:1417-1426. The slight increase in expression levels was attributed to cell proliferation resulting from increased R1881 addition.
# [2] = test system: hKLK2 promoter/enhancer-luciferase constructs in LNCaP cells; assay: hKLK2 promoter/enhancer-driven luciferase expression in transfected LNCaP cells; type: cell-based, human; settings: for fold induction at 0.001 µM: Homo sapiens, LNCaP, 48 h
# Description: To assess the function of the DNA segment containing the enhancer, a series of constructs was generated by inserting the hKLK2 5'-flanking region, shown schematically in FIG. 2, upstream of the luciferase reporter gene. The activity of these fragments was compared with that of CN299, a plasmid with the full hKLK2 promoter (-605 to +33) driving the expression of firefly luciferase. The constructs are as follows:
# To determine the effect of the 12 kbp 5'-flanking sequence on promoter activity, two constructs were created: CN299 and CN322. The hKLK2 promoter was cloned upstream of the luc gene to create CN299, as described in Example 2. The entire 12 kbp sequence upstream of the hKLK2 gene (including the promoter) was cloned upstream of the luc gene to create CN322, as described in Example 2. Each construct was then used to transfect LNCaP cells. The media in half of the dishes was supplemented with 0.5 nM R1881. The cells were harvested 48 hours post transfection and the luciferase activity was measured. […] At both R1881 concentrations tested, CN322 had higher activity than CN299.
# To determine if the hKLK2 5'-flanking sequence did indeed contain an androgen responsive element, two experiments were conducted. In the first experiment, LNCaP cells were transfected with CN322, the transformants were incubated in medium containing various concentrations of R1881, and 48 hours after transfection, luciferase activity was measured. […] Peak induction of activity was estimated at 1 nM R1881, about 9 fold over the 0 nM activity.
# (§1) Knowing that the PSA enhancer is tissue specific, a series of experiments was conducted to determine if the same was true for the hKLK2 enhancer. In the first experiment, LNCaP cells (a PSA-producing prostate cancer cell line) and 293s (a human embryonic kidney cell line) were transfected with CN299 or CN322 (Example 2). Half of the dishes were supplemented with 1 nM R1881, and the cells were harvested 48 hours post transfection. […] The results of this experiment again support the conclusion that the hKLK2 enhancer is androgen inducible.
# (§2) This 3.8 kbp fragment was fused upstream of the minimal hKLK2 promoter and then cloned upstream of the luc gene, creating CN355. A variety of cell lines were transfected with CN322 or CN355 by incubating them with the complexes in complete media overnight. The complexes were then aspirated and the media was replaced with stripped serum media. The media in half of the plates was supplemented with 1 nM R1881. The cells were then harvested 48 hours after the removal of the DNA-lipid complexes and tested for luciferase activity.
# [3] = test system: hKLK2 promoter/enhancer-luciferase constructs in 293 cells; assay: hKLK2 promoter/enhancer-driven luciferase expression in transfected 293 cells; type: cell-based, human; settings: 1 nM R1881
# Protocol: as §1
# [4] = test system: CN322 or CN355 in OVCAR, 293, PC3 cells; assay: hKLK2 enhancer/promoter luciferase activity in other cell lines (OVCAR, 293, PC3); type: cell-based; settings: Homo sapiens, 48 h, read-out: fold induction of activity
# Protocol: FIG. 7 is a bar graph depicting the activity of the hKLK2 enhancer/promoter in various cell lines. Various cell lines were transfected with either CN322 or CN355, and, after an overnight incubation in complete medium, were incubated in the presence or absence of R1881. CN355 contains a 3.8 kb fragment from approximately -6200 to approximately -2400 of the hKLK2 enhancer fused to the minimal hKLK2 promoter to control luciferase expression. The cell lines used were: OVCAR, human ovarian adenocarcinoma; 293, transformed human primary embryonal kidney; PC3, human grade IV prostate adenocarcinoma; LNCaP, metastatic human prostate adenocarcinoma.
# as §2
# [5] = test system: PSE-Luc (PSA enhancer/promoter-luciferase) in LNCaP cells; assay: Transient transfection of LNCaP cells with PSE-Luc, luciferase assay
# [6] = test system: PSE-Luc/LNCaP cell line CN1013; assay: Stably transfected PSE-Luc/LNCaP cell line CN1013 (and subclone CN1013.7), luciferase assay; settings: for inhibition of luciferase expression after induction with 1 nM R1881: CN1013, all anti-androgen concentrations examined; for concentration, relative to R1881, giving luciferase expression levels similar to R1881 / luciferase expression at physiological concentrations: CN1013, anti-androgen alone
# [7] = Metabolism of dihydrotestosterone in CN1013 cell line (Testosterone ELISA); settings: human, cn1013 cells
# CN1013 cells = assay: as above
structure (smiles),measurement,setting,value
"C[C@]1(O)CC[C@H]2[C@@H]3CCC4=CC(=O)CCC4=C3C=C[C@@]21C [R1881, methyl trienolone]",fold increase in expression levels over uninduced cells,[1],3-4 fold
same,response of CN322 luciferase activity to concentration,"[2]; CN322, LNCaP, 0-10 nM R1881",concentration dependent manner
same,fold induction of luciferase activity,"[2]; CN379, same assay methods, R1881",approximately 54 fold
same,fold induction at 0.001 µM,"[2]; read-out: fold induction of activity vs 0 nM R1881, CN299, LNCaP, 1 nM R1881, 48 hours",2 to 3
same,fold induction at 0.001 µM,"[2]; read-out: fold induction of activity vs 0 nM R1881, CN322, LNCaP, 1 nM R1881, 48 hours (Example 5 first experiment, FIG. 6)",17
same,fold induction at 0.001 µM,"[2]; read-out: fold induction of activity, CN322, LNCaP, 1 nM R1881, stripped serum media, 48 hours (FIG. 7)",~100
same,fold induction at 0.001 µM,"[2]; read-out: fold induction of activity, CN355, LNCaP, 1 nM R1881, stripped serum media, 48 hours (FIG. 7)",35
same,fold induction at 0.001 µM,"[2]; read-out: peak induction of luciferase activity over the 0 nM activity, CN322, LNCaP, 1 nM R1881, 48 hours after transfection",~9
same,change of luciferase activity,"[3]; CN299, 293 cells",reduction of activity
same,change of luciferase activity,"[3]; CN322, 293 cells",reduction of luciferase activity
same,fold induction at 0.001 µM,[4],1 to 2
same,concentration giving peak levels of luciferase expression,[5],1 nM
same,luciferase expression,"[5]; 1-50 nM R1881, 48 hours","3,000-3,500 RLUs"
same,concentration giving peak values of induction,[6]; CN1013,0.1 to 1 nM
same,pEC50,"[6]; Homo sapiens, LNCaP, read-out: EC50 of luciferase induction",10.12
same,fold induction of luciferase,[6]; subclone CN1013.7,100-200 fold
CC(=O)O[C@]1(C(C)=O)CC[C@H]2[C@@H]3C=C(Cl)C4=CC(=O)[C@@H]5C[C@@H]5[C@]4(C)[C@H]3CC[C@@]21C [cyproterone acetate],inhibition of luciferase expression after induction with 1 nM R1881,[6],neither inhibition nor induction
same,"concentration, relative to R1881, giving luciferase expression levels similar to R1881",[6],"100-1,000 fold"
same,luciferase expression at physiological concentrations,[6],zero or minimal expression
"C[C@]12CCC(=O)C[C@@H]1CC[C@@H]1[C@@H]2CC[C@]2(C)[C@@H](O)CC[C@@H]12 [DHT, dihydrotestosterone]",amount required relative to R1881 to obtain comparable luciferase activity,[5],approximately 100 fold
same,luciferase expression,[5]; DHT 100 and 200 nM,"2,500-3,000 RLUs"
same,half-life at 0.01 µM,[7],~1.1 h
same,time within which metabolism occurs after addition to CN1013 cells,CN1013 cells,1 to 4 h
same,concentration when unexposed to CN1013 cells,CN1013 cells; medium without cells,remained constant
same,amounts required for comparable expression relative to R1881,[6]; CN1013,100-200 fold
CC(C)(O)C(=O)Nc1ccc([N+](=O)[O-])c(C(F)(F)F)c1 [hydroxyflutamide],inhibition of luciferase expression after induction with 1 nM R1881,[6],neither inhibition nor induction
same,"concentration, relative to R1881, giving luciferase expression levels similar to R1881",[6],"100-1,000 fold"
same,luciferase expression at physiological concentrations,[6],zero or minimal expression
CC1=C(/C=C/C(C)=C/C=C/C(C)=C/C(=O)O)C(C)(C)CCC1 [retinoic acid],induction or inhibition of CN1013 luciferase,"[6]; CN1013, non-steroidal ligand unrelated to androgen receptor",did not result in either induction or inhibition
